ChEMBL document CHEMBL5036312, “From the Design to the In Vivo Evaluation of Benzohomoadamantane-Derived Soluble Epoxide Hydrolase Inhibitors for the Treatment of Acute Pancreatitis” (J Med Chem, 2021)
The source made the active and inactive calls. The rule behind the calls is not given here.

What was measured:
SH-SY5Y = assay: cells; settings: Homo sapiens, 24 h, read-out: LD50
Description: Cytotoxicity against human SH-SY5Y cells assessed as lethal dose measured after 24 hrs by propidium iodide staining based fluorescent assay

[1] = Toxicity in overnight fasted C57BL/6 mouse model of cerulein-induced acute pancreatitis assessed as reversal of edema at 0.3 mg/kg, ip dosed 14 hrs after cerulein injection and measured 10 hrs after compound administration; format: organism-based; settings: in vivo
Mus musculus [2] = assay: Anti-inflammatory activity against overnight fasted cerulein-induced acute pancreatitis C57BL/6 mouse model assessed as reversal of pancreatic damage at 0.3 mg/kg, ip dosed 14 hrs after cerulein injection and measured 10 hrs after compound administration; format: functional, organism-based
[3] = Drug uptake in overnight fasted pancreas of cerulein-induced acute pancreatitis C57BL/6 mouse model at 0.1 mg/kg, ip dosed 14 hrs after cerulein injection and measured 10 hrs after compound administration; format: ADME, organism-based; settings: in vivo
[4] = Toxicity in overnight fasted C57BL/6 mouse model of cerulein-induced acute pancreatitis assessed as increase in body weight at 0.3 mg/kg, ip dosed 14 hrs after cerulein injection and measured 10 hrs after compound administration; format: organism-based; settings: in vivo
[5] = Toxicity in overnight fasted C57BL/6 mouse model of cerulein-induced acute pancreatitis assessed as increase in body weight at 0.1 mg/kg, ip dosed 14 hrs after cerulein injection and measured 10 hrs after compound administration; format: organism-based; settings: in vivo
Mus musculus [6] = assay: Anti-inflammatory activity against overnight fasted cerulein-induced acute pancreatitis C57BL/6 mouse model assessed as reversal of reversal of neutrophil infiltration at 0.3 mg/kg, ip dosed 14 hrs after cerulein injection and measured 10 hrs after compound administration; format: functional, organism-based
Mus musculus [7] = assay: Anti-inflammatory activity against overnight fasted cerulein-induced acute pancreatitis C57BL/6 mouse model assessed as reduction in severity of pancreatitis at 0.1 to 0.3 mg/kg, ip dosed 14 hrs after cerulein injection and measured 10 hrs after compound administration; format: functional, organism-based; settings: dose 0.1-0.3 mg/kg
Mus musculus [8] = assay: Anti-inflammatory activity against overnight fasted cerulein-induced acute pancreatitis C57BL/6 mouse model assessed as reduction in inflammatory cells at 0.1 to 0.3 mg/kg, ip dosed 14 hrs after cerulein injection and measured 10 hrs after compound administration; format: functional, organism-based; settings: dose 0.1-0.3 mg/kg
Mus musculus [9] = assay: Anti-inflammatory activity against overnight fasted cerulein-induced acute pancreatitis C57BL/6 mouse model assessed as reduction in parenchymal atrophy at 0.1 to 0.3 mg/kg, ip dosed 14 hrs after cerulein injection and measured 10 hrs after compound administration; format: functional, organism-based; settings: dose 0.1-0.3 mg/kg

## CC12CC3CC(NC(=O)N[C@H]4CC[C@H](Oc5ccc(C(=O)O)cc5)CC4)(CC(C1)c1ccccc13)C2
SH-SY5Y
  CC50: > 100 µM

## O=C(NC12CC3CC(F)(CC(C1)c1ccccc13)C2)N[C@H]1CC[C@H](Oc2ccc(C(=O)O)cc2)CC1
SH-SY5Y
  CC50: > 100 µM

## O=C(NC12CC3CC(Cl)(CC(C1)c1ccccc13)C2)N[C@H]1CC[C@H](Oc2ccc(C(=O)O)cc2)CC1
[1]
  Activity: Non-Toxic
Mus musculus [2]
  Activity: Active
[3]
  Drug uptake: Not Active
[4]
  Activity: Toxic
[5]
  Activity: Toxic
Mus musculus [6]
  Activity: Active
Mus musculus [7]
  Activity: Active
Mus musculus [8]
  Activity: Active
Mus musculus [9]
  Activity: Active
SH-SY5Y
  CC50: > 100 µM
